Laboratory results published in patent US12558397B2, “Composition for prevention, amelioration, or treatment of urination-related diseases comprising cephalotocin” (KOREA RESEARCH INSTITUTE OF CHEMICAL TECHNOLOGY, priority 2020, dated 2026).

Experiments:
Format in all cases: cell-based
human oxytocin receptor = target: T1, human oxytocin receptor (Homo sapiens, UniProt P30559); experiment: Oxytocin receptor OXTR activity/inhibitory effect, intracellular calcium by calcium dye fluorescence imaging; details: ECSV304 cells overexpressing human oxytocin receptor, FIGS. 3 and 4
T1 construct: expressed in transfected cells; host or cells: recombinant human epithelial cells, cell line ECSV304 as printed
T1 sequence (P30559 1-389): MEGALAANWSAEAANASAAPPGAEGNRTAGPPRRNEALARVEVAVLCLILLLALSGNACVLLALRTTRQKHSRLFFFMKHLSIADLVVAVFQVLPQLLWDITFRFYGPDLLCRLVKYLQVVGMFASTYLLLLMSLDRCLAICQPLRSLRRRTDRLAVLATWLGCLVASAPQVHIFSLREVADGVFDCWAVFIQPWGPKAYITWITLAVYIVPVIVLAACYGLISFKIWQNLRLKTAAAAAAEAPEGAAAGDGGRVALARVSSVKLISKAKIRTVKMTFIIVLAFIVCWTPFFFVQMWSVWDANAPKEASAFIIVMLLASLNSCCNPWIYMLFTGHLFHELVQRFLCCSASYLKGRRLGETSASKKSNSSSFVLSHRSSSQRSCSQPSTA
Protocol: Recombinant human epithelial cells overexpressing human oxytocin receptor (Name of cell line: ECSV304) were cultured and treated with cephalotocin at different concentrations at room temperature. The change in intracellular calcium concentration induced by cephalotocin-oxytocin receptor binding was measured by calcium dye fluorescence imaging.
To confirm the receptor activation effect, the response to increasing the intracellular calcium concentration that oxytocin 1 μM may cause was taken as 100%, and the relative magnitude of the response induced when treated with cephalotocin alone without oxytocin was measured
To confirm the receptor inhibitory effect, the response to increasing the intracellular calcium concentration that oxytocin 30 nM may cause was taken as 100% standard, and the relative magnitude of the response induced when treated with oxytocin 30 nM and cephalotocin simultaneously was measured.
(§1) . The results confirming the regulatory effect on the receptors OXTR, V1AR, V1BR and V2R by Octopus vulgaris octopressin are shown in FIGS. 3 and 4, respectively.

[1] = target: T2, human vasopressin V1A receptor (Homo sapiens, UniProt P37288); experiment: Vasopressin receptor V1AR activity/inhibitory effect, intracellular calcium by calcium dye fluorescence imaging; details: CHO cells overexpressing human V1A receptor, FIGS. 3 and 4
T2 construct: expressed in transfected cells; host or cells: CHO (Chinese hamster ovary) cells
Protocol: Recombinant human vasopressin V1A receptor-overexpressing Chinese hamster ovary cells (cell line name: CHO) were cultured and treated with cephalotocin at different concentrations at room temperature, and the change in intracellular calcium concentration induced by cephalotocin-vasopressin V1A receptor binding was measured by the calcium dye fluorescence imaging method.
To confirm the receptor inhibitory effect, the response to increasing the intracellular calcium concentration that vasopressin 10 nM may cause was taken as 100% standard, and the relative magnitude of the response induced when treated with vasopressin 10 nM and cephalotocin simultaneously was measured.
as §1

[2] = target: T3, human vasopressin V1B receptor (Homo sapiens, UniProt P47901); experiment: Vasopressin receptor V1BR activity/inhibitory effect, intracellular calcium by calcium dye fluorescence imaging; details: RBL cells overexpressing human V1B receptor, FIGS. 3 and 4
T3 construct: expressed in transfected cells; host or cells: RBL (basophilic leukemia) cells
T3 sequence (P47901 1-424): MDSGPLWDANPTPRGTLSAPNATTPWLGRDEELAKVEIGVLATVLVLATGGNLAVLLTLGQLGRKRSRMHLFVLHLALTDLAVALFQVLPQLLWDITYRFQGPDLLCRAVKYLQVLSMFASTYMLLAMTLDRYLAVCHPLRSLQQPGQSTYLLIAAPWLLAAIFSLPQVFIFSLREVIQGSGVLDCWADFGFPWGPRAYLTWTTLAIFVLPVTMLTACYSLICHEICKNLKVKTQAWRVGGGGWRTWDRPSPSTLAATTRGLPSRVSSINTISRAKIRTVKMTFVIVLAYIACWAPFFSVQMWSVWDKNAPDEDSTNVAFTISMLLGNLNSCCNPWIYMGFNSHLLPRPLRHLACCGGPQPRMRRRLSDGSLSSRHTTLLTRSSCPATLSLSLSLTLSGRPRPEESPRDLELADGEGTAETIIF
Protocol: Recombinant human vasopressin V1B receptor-overexpressing […] basophilic leukemia (cell line name: RBL) was cultured and treated with cephalotocin at different concentrations at room temperature, and the change in intracellular calcium concentration induced by cephalotocin-vasopressin V1B receptor binding was measured by the calcium dye fluorescence imaging method.
The results confirming the regulatory effect on the receptors OXTR, V1AR, V1BR and V2R by Octopus vulgaris octopressin are shown in FIGS. 3 and 4, respectively.

[3] = target: T4, human vasopressin V2 receptor (Homo sapiens, UniProt P30518); experiment: Vasopressin receptor V2R activity/inhibitory effect, intracellular cAMP by HTRF; details: CHO cells overexpressing human V2 receptor, FIGS. 3 and 4
T4 construct: expressed in transfected cells; host or cells: CHO (Chinese hamster ovary) cells
Protocol: Recombinant human vasopressin V2 receptor-overexpressing Chinese hamster ovary cells (cell line name: CHO) were cultured and treated with cephalotocin at different concentrations at room temperature for 30 minutes, and intracellular cAMP concentration accumulated for 30 minutes by cephalotocin-vasopressin V2 receptor binding was measured by the HTRF fluorescence imaging method. […]. To confirm the receptor inhibitory effect, the response to increasing the intracellular cAMP concentration that vasopressin 0.03 nM may cause for 30 minutes was taken as 100% standard, and the relative magnitude of the response induced when treated with vasopressin 0.03 nM and cephalotocin simultaneously was measured.
as §1

T2 sequence (P37288 whole entry): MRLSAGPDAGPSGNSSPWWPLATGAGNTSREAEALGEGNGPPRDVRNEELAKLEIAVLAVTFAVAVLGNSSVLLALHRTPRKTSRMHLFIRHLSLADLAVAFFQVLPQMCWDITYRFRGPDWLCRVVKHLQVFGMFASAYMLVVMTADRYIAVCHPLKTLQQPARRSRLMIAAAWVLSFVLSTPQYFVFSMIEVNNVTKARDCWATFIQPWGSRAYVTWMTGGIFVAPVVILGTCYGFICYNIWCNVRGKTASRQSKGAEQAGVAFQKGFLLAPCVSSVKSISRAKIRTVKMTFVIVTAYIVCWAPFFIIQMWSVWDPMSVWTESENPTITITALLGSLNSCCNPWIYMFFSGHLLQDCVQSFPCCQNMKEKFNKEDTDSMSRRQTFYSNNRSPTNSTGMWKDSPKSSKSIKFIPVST

octopressin
does not regulate: Regulation (activation/inhibition) of OXTR (human oxytocin receptor) | Regulation (activation/inhibition) of V1AR [1] | Regulation (activation/inhibition) of V1BR [2] | Regulation (activation/inhibition) of V2R [3]
